Results published in patent US20200190507A1, “Encoded Solid Phase Compound Library with Polynucleotide Based Barcoding” (The Scripps Research Institute, priority 2016, published 2020).
Entries after “also recorded” stand apart in the source; their conditions may differ.

Test system: ATB serum IgGs
Test: Antigen competition binding analysis with beads displaying 2-B
Set-up: species or system human
Details: pooled ATB serum, beads displaying 2-B; CFP 250 μg/mL

## Ag85A: Mycobacterium tuberculosis purified native protein Ag85A (Rv3804c), Strain H37Rv
  competition with 2-B for binding ATB serum IgGs: competed; also recorded: compete strongly

## recombinant Ag85A: Mycobacterium tuberculosis recombinant protein reference standard Ag85A, NR-49427
  competition with 2-B for binding ATB serum IgGs: unreactive; also recorded: did not compete
